Data as given in patent US20220133722A1, “PHARMACEUTICAL COMPOSITIONS” (QUE ONCOLOGY PTY LTD, priority 2019, published 2022).
“And” between values parts separate entries of the source, which are not always exact repeats. Identical values can stand only once.

Experiment: Part 2 PK study: 200 mg QD versus 100 mg BID for 10 days under fed conditions
Format: in vivo, human
Conditions: for AUC0-last / AUC0-tau / Cavg / Cmax / Fluct / Tlast / Tmax / t½ / % AUCexp / AUCinf / Accum Index / CLss/F / Cmin: fed
Description: Part 2 involved analysing the PK parameters obtained following either single (QD) or twice daily (BD) dosing of a compound of formula (Ia) under fed conditions.
Subjects were randomized 1:1 to receive a daily dose of 200 mg administered once daily in the morning (200 mg capsule) or twice daily (100 mg capsules BID) for a total of 10 days. PK blood samples were taken on Day 1 pre-dose and at 0.25, 0.5, 1.0, 1.5, 2, 3, 4, 8, 10, 12 and 16 hours post-dose. On Days 2 to 10, PK blood samples were taken once pre-dose, and on Days 11 to 14, at 24, 36, 48, 60, 72 and 96 hours post-dose.
Subjects selected for participation checked into the clinical unit and were randomized to the dosing regimen receiving their first dose of study drug on the morning of Day 1 followed by PK and safety assessments through the morning of Day 2 (24 hours post-dose). Subjects on a BID regimen received their second dose of study drug approximately 12 hours after the first dose. Subjects remained confined in the clinic for dosing BID or QD through the last dose of study drug on the morning of Day 10. PK samples were collected through 96 hrs post-dose. Subjects were discharged from the clinic following collection of the 72 hr PK sample, returning to the clinic on the morning of Day 14 for the 96 hr sample collection.
For both Parts 1 and 2, samples were processed and analysed as follows. The method extracted Q-122 and the Internal Standard (IS, Q-122 ^13C4) from human plasma using protein precipitation extraction.
The analytes were separated by HPLC on a Phenomenex Synergi Polar-RP column, and the eluates monitored by an API4000 MS/MS detector in positive MRM mode. The extract was then assayed against a calibration curve. The data were acquired and processed by the data acquisition system Analyst® (Sciex) linked directly to the API4000 MS/MS detector and then processed in Watson LIMS™ (Thermo Scientific), where applicable. The method range is from 10.0 to 2500 ng/mL using 50 μL of matrix and has a run time of approximately 3.2 minutes per sample.
Plasma PK parameters for each dosing regimen and dose level were calculated from the concentrations of Q-122 and its major metabolites measured in pre-dose and post-dose plasma samples. For each dose level, descriptive statistics (sample size, arithmetic means, geometric means, standard deviation, % coefficient of variation, minimum, median, and maximum) are presented.
The pharmacokinetic results were processed according to standard non-compartmental analytical procedures. The software used was Phoenix™ WinNonlin® v 6.4 (Pharsight Corporation, USA) and Microsoft® Excel® 2010 (Microsoft Corporation). The following PK parameters were estimated from plasma data.

[1] = 100 mg BID, Day 1, individual subjects
[2] = 100 mg BID, Day 10, individual subjects
[3] = 200 mg QD, Day 1, individual subjects

With `c1cnc(NCc2ccc(CNc3ncccn3)cc2)nc1` [Q-122] the “Cmin (range over subjects)” value (100 mg BID dosing with food) was 117 to 195 ng/mL, the “change of Cavg between days 1 and 10” value (100 mg BID dosing with food) was “doubled” and the “increase of mean Cmax between days 1 and 10” value (100 mg BID dosing with food) was “less than 2 fold”. The “trough concentrations with BID dosing relative to QD dosing” value (100 mg BID versus 200 mg QD) was “approximately double”, the AUC0-last [1] was 6822 ng·h/mL and 7028 ng·h/mL and 6463 ng·h/mL and 6090 ng·h/mL and 5186 ng·h/mL and the AUC0-tau [1] was 3781 ng·h/mL and 2727 ng·h/mL and 4254 ng·h/mL and 3600 ng·h/mL and 4378 ng·h/mL. The Cavg [1] was 354.49 ng/mL and 299.97 ng/mL and 364.87 ng/mL and 232.90 ng/mL and 315.05 ng/mL and 227.25 ng/mL, the Cmax [1] was 939.00 ng/mL and 773.00 ng/mL and 845.00 ng/mL and 405.00 ng/mL and 852.00 ng/mL and 563.00 ng/mL and the Fluct [1] was 264.89% and 257.70% and 231.59% and 173.90% and 270.44% and 247.74%. The Tlast [1] was 24.00 h, the Tmax [1] was 1.00 h and 1.50 h and the t½ [1] was 9.38 h and 6.21 h and 3.97 h and 3.19 h and 5.52 h and 4.66 h. It also gave an AUC0-tau (100 mg BID, Day 1, max) of 4378 ng·h/mL, a Cavg (100 mg BID, Day 1, max) of 364.87 ng/mL and a Cmax (100 mg BID, Day 1, max) of 939.00 ng/mL. For the same molecule, the Fluct (100 mg BID, Day 1, max) was 270.44%, the Tlast (100 mg BID, Day 1, max) was 24.00 h and the t½ (100 mg BID, Day 1, max) was 9.38 h. It also gave a Cavg (100 mg BID, Day 1, mean) of 299.088 ng/mL, a Fluct (100 mg BID, Day 1, mean) of 241.041% and a Tlast (100 mg BID, Day 1, mean) of 24.000 h. For the same molecule, the Cavg (100 mg BID, Day 1, median) was 307.51 ng/mL, the Fluct (100 mg BID, Day 1, median) was 252.72% and the Tlast (100 mg BID, Day 1, median) was 24.00 h. For the same molecule, the AUC0-last (100 mg BID, Day 1, min) was 5186 ng·h/mL, the AUC0-tau (100 mg BID, Day 1, min) was 2727 ng·h/mL and the Cavg (100 mg BID, Day 1, min) was 227.25 ng/mL. For the same molecule, the Cmax (100 mg BID, Day 1, min) was 405.00 ng/mL, the Fluct (100 mg BID, Day 1, min) was 173.90% and the Tlast (100 mg BID, Day 1, min) was 24.00 h. The Tmax (100 mg BID, Day 1, min) was 1.00 h, the t½ (100 mg BID, Day 1, min) was 3.19 h and the “% AUCexp” value [2] was 2.24% and 1.52% and 8.16% and 4.45% and 7.33% and 4.38%. For the same molecule, the AUC0-last [2] was 7715 ng·h/mL and 5510 ng·h/mL and 6477 ng·h/mL and 5615 ng·h/mL and 7597 ng·h/mL, the AUC0-tau [2] was 5982 ng·h/mL and 3731 ng·h/mL and 5545 ng·h/mL and 4118 ng·h/mL and 6283 ng·h/mL and the AUCinf [2] was 7834 ng·h/mL and 6000 ng·h/mL and 6779 ng·h/mL and 6059 ng·h/mL and 7945 ng·h/mL. For the same molecule, the “Accum Index” value [2] was 2.06 and 1.33 and 4.17 and 1.36 and 1.79 and 1.28, the CLss/F [2] was 14.28 L/h and 16.72 L/h and 26.80 L/h and 18.03 L/h and 24.29 L/h and 15.92 L/h and the Cavg [2] was 583.47 ng/mL and 498.51 ng/mL and 310.92 ng/mL and 462.09 ng/mL and 343.13 ng/mL and 523.54 ng/mL. The Cmax [2] was 1160.00 ng/mL and 865.00 ng/mL and 1050.00 ng/mL and 677.00 ng/mL and 1070.00 ng/mL, the Cmin [2] was 122.00 ng/mL (2×) and 164.00 ng/mL and 117.00 ng/mL and 155.00 ng/mL and 195.00 ng/mL and the Fluct [2] was 201.90% and 199.80% and 240.58% and 200.83% and 152.13% and 167.13%. For the same molecule, the Tlast [2] was 48.00 h and 36.00 h (2×) and 72.00 h and 24.00 h (2×), the Tmax [2] was 1.50 h and 1.00 h and the t½ [2] was 12.52 h and 6.01 h and 30.30 h and 6.26 h and 10.19 h and 5.46 h. For the same molecule, the “% AUCexp” value (100 mg BID, Day 10, max) was 8.16%, the “Accum Index” value (100 mg BID, Day 10, max) was 4.17 and the CLss/F (100 mg BID, Day 10, max) was 26.80 L/h. It also gave a Cavg (100 mg BID, Day 10, max) of 583.47 ng/mL, a Cmin (100 mg BID, Day 10, max) of 195.00 ng/mL and a Fluct (100 mg BID, Day 10, max) of 240.58%. For the same molecule, the Tlast (100 mg BID, Day 10, max) was 72.00 h, the t½ (100 mg BID, Day 10, max) was 30.30 h and the “% AUCexp” value (100 mg BID, Day 10, mean) was 4.679%. It also gave a CLss/F (100 mg BID, Day 10, mean) of 19.340 L/h, a Cavg (100 mg BID, Day 10, mean) of 453.609 ng/mL and a Cmin (100 mg BID, Day 10, mean) of 145.833 ng/mL. For the same molecule, the Fluct (100 mg BID, Day 10, mean) was 193.726%, the Tlast (100 mg BID, Day 10, mean) was 40.000 h and the “% AUCexp” value (100 mg BID, Day 10, median) was 4.42%. The “Accum Index” value (100 mg BID, Day 10, median) was 1.58, the CLss/F (100 mg BID, Day 10, median) was 17.38 L/h and the Cavg (100 mg BID, Day 10, median) was 480.30 ng/mL. The Cmin (100 mg BID, Day 10, median) was 138.50 ng/mL, the Fluct (100 mg BID, Day 10, median) was 200.31% and the Tlast (100 mg BID, Day 10, median) was 36.00 h. For the same molecule, the “% AUCexp” value (100 mg BID, Day 10, min) was 1.52%, the AUC0-last (100 mg BID, Day 10, min) was 5510 ng·h/mL and the AUC0-tau (100 mg BID, Day 10, min) was 3731 ng·h/mL. For the same molecule, the AUCinf (100 mg BID, Day 10, min) was 6000 ng·h/mL, the “Accum Index” value (100 mg BID, Day 10, min) was 1.28 and the CLss/F (100 mg BID, Day 10, min) was 14.28 L/h. It also gave a Cavg (100 mg BID, Day 10, min) of 310.92 ng/mL, a Cmax (100 mg BID, Day 10, min) of 677.00 ng/mL and a Cmin (100 mg BID, Day 10, min) of 117.00 ng/mL. It also gave a Fluct (100 mg BID, Day 10, min) of 152.13%, a Tlast (100 mg BID, Day 10, min) of 24 h and a Tmax (100 mg BID, Day 10, min) of 1.00 h. For the same molecule, the t½ (100 mg BID, Day 10, min) was 5.46 h, the “Cmin (range over subjects)” value (200 mg QD dosing with food) was 52 to 94 ng/mL and the “change of Cmax and Cavg between Days 1 and 10” value (200 mg QD dosing with food) was “neither Cmax nor Cavg changed”. The AUC0-last [3] was 6439 ng·h/mL and 1632 ng·h/mL and 6744 ng·h/mL and 8831 ng·h/mL and 12137 ng·h/mL and 12571 ng·h/mL, the AUC0-tau [3] was 8831 ng·h/mL and 12137 ng·h/mL and 12571 ng·h/mL and 6439 ng·h/mL and 1632 ng·h/mL and 6744 ng·h/mL and the Cavg [3] was 268.28 ng/mL and 67.99 ng/mL and 290.99 ng/mL and 367.97 ng/mL and 505.70 ng/mL and 523.80 ng/mL. The Cmax [3] was 980.00 ng/mL and 101.00 ng/mL and 1410.00 ng/mL and 1700.00 ng/mL and 1880.00 ng/mL and 2010.00 ng/mL, the Fluct [3] was 365.28% and 148.55% and 501.79% and 461.99% and 371.76% and 383.73% and the Tlast [3] was 24.00 h. For the same molecule, the t½ [3] was 7.07 h and 5.60 h and 4.61 h and 9.17 h and 17.12 h and 8.29 h, the AUC0-last (200 mg QD, Day 1, max) was 12571 ng·h/mL and the AUC0-tau (200 mg QD, Day 1, max) was 12571 ng·h/mL. For the same molecule, the Cavg (200 mg QD, Day 1, max) was 523.80 ng/mL, the Cmax (200 mg QD, Day 1, max) was 2010.00 ng/mL and the Fluct (200 mg QD, Day 1, max) was 501.79%. For the same molecule, the Tlast (200 mg QD, Day 1, max) was 24.00 h, the t½ (200 mg QD, Day 1, max) was 17.12 h and the Cavg (200 mg QD, Day 1, mean) was 335.791 ng/mL. For the same molecule, the Fluct (200 mg QD, Day 1, mean) was 372.185%, the Tlast (200 mg QD, Day 1, mean) was 24.000 h and the Cavg (200 mg QD, Day 1, median) was 324.48 ng/mL. For the same molecule, the Fluct (200 mg QD, Day 1, median) was 377.75%, the Tlast (200 mg QD, Day 1, median) was 24.00 h and the AUC0-last (200 mg QD, Day 1, min) was 1632 ng·h/mL. The AUC0-tau (200 mg QD, Day 1, min) was 1632 ng·h/mL, the Cavg (200 mg QD, Day 1, min) was 67.99 ng/mL and the Cmax (200 mg QD, Day 1, min) was 101.00 ng/mL. It also gave a Fluct (200 mg QD, Day 1, min) of 148.55%, a Tlast (200 mg QD, Day 1, min) of 24.00 h and a t½ (200 mg QD, Day 1, min) of 4.61 h.
